Measurements taken from PubChem BioAssay AID588677 (The Scripps Research Institute Molecular Screening Center, 2011).
Active and inactive are the calls of the source.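 Rule for the calls: active = phosphorylated EGFR protein level shifted down or up by at least 30% versus solvent-only treated cells; inactive = shift under 30% in either direction.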

Target: Epidermal growth factor receptor (Homo sapiens) (UniProt P00533)
Assay: decrease of p-EGFR levels in colorectal cells – SW620 cells, chemiluminescent western blot, powder samples, counter-screen for KLF5 inhibitor project, late-stage follow-up (AID 588677)
Settings: 24 h, at 10 µM; for fold change: measured here: p-EGFR band fold change vs DMSO

Sequence of Epidermal growth factor receptor (Homo sapiens) (P00533 whole entry, looked up): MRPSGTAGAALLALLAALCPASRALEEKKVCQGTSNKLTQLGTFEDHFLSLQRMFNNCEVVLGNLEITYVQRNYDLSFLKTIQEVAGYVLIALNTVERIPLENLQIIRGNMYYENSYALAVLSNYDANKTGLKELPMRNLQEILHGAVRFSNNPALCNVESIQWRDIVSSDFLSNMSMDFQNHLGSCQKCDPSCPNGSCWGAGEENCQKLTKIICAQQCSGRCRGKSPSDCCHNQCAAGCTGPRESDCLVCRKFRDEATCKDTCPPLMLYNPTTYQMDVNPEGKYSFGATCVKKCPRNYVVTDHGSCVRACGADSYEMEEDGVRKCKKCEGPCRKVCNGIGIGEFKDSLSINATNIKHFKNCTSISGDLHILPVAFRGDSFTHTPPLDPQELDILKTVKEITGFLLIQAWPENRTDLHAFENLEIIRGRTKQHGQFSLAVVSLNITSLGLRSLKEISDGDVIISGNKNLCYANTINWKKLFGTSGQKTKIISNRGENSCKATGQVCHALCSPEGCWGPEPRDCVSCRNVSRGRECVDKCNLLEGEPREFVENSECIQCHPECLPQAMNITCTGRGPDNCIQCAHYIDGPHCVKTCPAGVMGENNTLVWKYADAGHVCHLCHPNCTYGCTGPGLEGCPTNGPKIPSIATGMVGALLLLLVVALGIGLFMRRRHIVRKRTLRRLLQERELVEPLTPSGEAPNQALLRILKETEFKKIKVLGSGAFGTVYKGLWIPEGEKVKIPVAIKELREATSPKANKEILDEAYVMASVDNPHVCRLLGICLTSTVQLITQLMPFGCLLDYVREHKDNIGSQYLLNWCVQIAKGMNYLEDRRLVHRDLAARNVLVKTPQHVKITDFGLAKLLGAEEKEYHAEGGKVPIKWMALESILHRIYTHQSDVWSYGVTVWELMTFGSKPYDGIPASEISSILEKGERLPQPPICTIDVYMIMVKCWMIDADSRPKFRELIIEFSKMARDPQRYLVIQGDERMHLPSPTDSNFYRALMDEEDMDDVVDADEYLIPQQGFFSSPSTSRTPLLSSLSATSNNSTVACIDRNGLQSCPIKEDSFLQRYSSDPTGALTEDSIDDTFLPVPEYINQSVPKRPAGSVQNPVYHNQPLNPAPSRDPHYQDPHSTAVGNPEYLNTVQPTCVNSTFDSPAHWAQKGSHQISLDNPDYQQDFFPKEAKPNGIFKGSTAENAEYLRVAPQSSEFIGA

SMILES	fold change	inhibition
CN(C(=O)CNC(=O)/C=C/c1cccc(Cl)c1)C1CCS(=O)(=O)CC1	14.2	
CN(C(=O)CNC(=O)/C=C/c1cccc(Cl)c1)C1CCS(=O)(=O)C1 (stereo not given)	-1.25	20% (inactive)
CN(C(=O)COC(=O)/C=C/c1cccc([N+](=O)[O-])c1)C1CCS(=O)(=O)C1 (stereo not given)	1.72	-71.5%
